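Following 48 hours of exposure in 96-well plates, responses at five concentrations were used to interpolate endpoints linearly. Abbreviation: GI50, concentration required for 50% inhibition of growth.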 Activity calls are given as the source filed them. Cut-off read from the data, not from the text of the source: active = GI50 up to about 1.1 µM and inactive = higher. Starred links: 1 amine or outer side, 2 acyl side, 3 side chain; linkers in the order of their positions; H or OH if unused. Positions of bridges follow the written chain, without caps; N, C: chain ends. Non-standard residues stand in square brackets, D forms with d. Residues, ends and D or L forms follow the SMILES beside them. Chains are numbered I, II in the order given. Actinocin(9to1) = Cc1c2oc3c(C)ccc(C(=O)[*:1])c3nc-2c(C(=O)[*:2])c(N)c1=O; NMeV = CN[CH](C(=O)O)C(C)C; Sar = CNCC(=O)O Some results are limits rather than exact numbers.

Some test systems named below: UO-31; TK-10; SF-268; HL-60; HCC 2998; 786-0; SW-620; A498; SK-MEL-28; NCI-H226; OVCAR-8; SNB-75; U-251; NCI-H460; SN12C; SF-295; OVCAR-5; Malme-3M; CAKI-1.
Test in all cases: DTP human tumour cell line panel, 48 h

Take `COc1cc(/C=C(\C)c2ccc3c(c2)OCO3)cc(OC)c1OC`: the GI50 (as a rule, the concentration at which growth is held to half of that of the control) with UO-31 is 27.3 µM (inactive); in the assay with TK-10 it was 47 µM (inactive); with SF-268 it was 26.9 µM (inactive); in the assay on HL-60 it was 15.7 µM (inactive); in the assay with HCC 2998, 25.5 µM (inactive); in the assay on 786-0, 21.3 µM (inactive). The GI50 in the assay with SW-620 is 19.1 µM (inactive); with A498, 17.6 µM (inactive); with SK-MEL-28 it was 41.1 µM (inactive); with NCI-H226, 33.7 µM (inactive); in the assay on OVCAR-8 it was 29.8 µM (inactive); with SNB-75, 5 µM (inactive). Further, the GI50 with U-251 was 50.4 µM (inactive); in the assay on NCI-H460 it was 34.2 µM (inactive); with SN12C, 26.2 µM (inactive); in the assay on SF-295, 25.2 µM (inactive); with OVCAR-5, 55.3 µM (inactive); in the assay with Malme-3M it was 19.8 µM (inactive).
Turning to `COc1ccc2cc(C(=O)NCCCNC(=O)c3ccc4c(OC)c(OC)ccc4c3)ccc2c1OC`, the GI50 with UO-31, in the assay on SF-268, with HCC 2998, with 786-0, in the assay with SW-620 and in the assay on A498 was > 100 µM (inactive) in each case. Moreover, the GI50 with SK-MEL-28, in the assay with CAKI-1, with U-251, with NCI-H460, in the assay with SN12C and with SF-295 was > 100 µM (inactive) throughout. In addition, the GI50 in the assay with OVCAR-5 was > 100 µM (inactive).
As to `Cc1c(-c2ccccc2)[nH]c2cc(Cl)ccc2c1=O`, the GI50 in the assay with UO-31 is 0.0135 µM (active); in the assay with TK-10, 38 µM (inactive); in the assay on SF-268 it was 33.5 µM (inactive); in the assay on HL-60, 23.1 µM (inactive); in the assay with HCC 2998 it was > 100 µM (inactive); with A498 it was > 100 µM (inactive). Also, the GI50 in the assay on SK-MEL-28 was 71.9 µM (inactive); with NCI-H226, 21.1 µM (inactive); in the assay on CAKI-1, 29.2 µM (inactive); with U-251 it was 25.8 µM (inactive); in the assay on NCI-H460, 0.631 µM (active); with SN12C, > 100 µM (inactive). Also, the GI50 is > 100 µM (inactive) in the assay with OVCAR-5 and 65 µM (inactive) with Malme-3M.
`CCCCC(C)/C=C/C(O)=C1\C(=O)O/C(=C\C(=O)O)C1=O` (stereo unspecified): the GI50 with UO-31, in the assay on TK-10, in the assay with HL-60, in the assay with 786-0, in the assay with SW-620 and in the assay on A498 was > 100 µM (inactive) in each case. Further, the GI50 in the assay with SK-MEL-28, in the assay on NCI-H226, in the assay on OVCAR-8, with SNB-75, in the assay on U-251 and in the assay with NCI-H460 was > 100 µM (inactive) throughout. The GI50 with SN12C, in the assay with SF-295, with OVCAR-5 and in the assay with Malme-3M was > 100 µM (inactive) each time.
In the case of `C=C1C(=O)O[C@H]2C/C(C=O)=C\[C@H]3O[C@H]3/C(COC(=O)C(C)C)=C/CC12` (stereo partly specified), the GI50 with UO-31 was 5.58 µM (inactive); in the assay on TK-10 it was 11.8 µM (inactive); in the assay on HL-60, 2.11 µM (inactive); in the assay on HCC 2998, 13.4 µM (inactive); in the assay with 786-0, 2.9 µM (inactive); in the assay on SW-620, 2.52 µM (inactive). Also, the GI50 is 3.3 µM (inactive) in the assay on SK-MEL-28; 21.4 µM (inactive) in the assay with NCI-H226; 3.14 µM (inactive) with OVCAR-8; 2.65 µM (inactive) with CAKI-1; 7.26 µM (inactive) in the assay with U-251; 10.5 µM (inactive) in the assay with NCI-H460. The GI50 is 2.54 µM (inactive) with SN12C, 25.6 µM (inactive) in the assay with SF-295, 2.01 µM (inactive) in the assay with OVCAR-5 and 10.3 µM (inactive) with Malme-3M.
Take `O=c1c2ccccc2nc(-c2ccccc2Cl)n1NCC1(O)OCC(O)C(O)C1O` (stereo unspecified): the GI50 with UO-31, in the assay with TK-10, with SF-268, in the assay on HL-60, in the assay with 786-0 and in the assay with SW-620 was > 100 µM (inactive) throughout. Besides, the GI50 in the assay with A498 was > 100 µM (inactive); with SK-MEL-28 it was > 100 µM (inactive); in the assay on OVCAR-8 it was > 100 µM (inactive); with SNB-75, 62.2 µM (inactive); with CAKI-1 it was > 100 µM (inactive); in the assay with U-251 it was > 100 µM (inactive). The GI50 in the assay on NCI-H460, in the assay with SN12C, in the assay with SF-295, with OVCAR-5 and in the assay on Malme-3M was > 100 µM (inactive) in each case.
Regarding `CC(=O)O[C@H]1CC[C@H]2[C@@H]3CCC4=C/C(=N/OCCN(C)C)CC[C@]4(C)[C@H]3CC[C@]12C`, the GI50 is 14.9 µM (inactive) in the assay on UO-31; 11.3 µM (inactive) in the assay on TK-10; 13.1 µM (inactive) in the assay with SF-268; 1.88 µM (inactive) in the assay with HL-60; 6.43 µM (inactive) in the assay with HCC 2998; 8.17 µM (inactive) in the assay with 786-0. The GI50 in the assay with SW-620 is 9.51 µM (inactive); with SK-MEL-28, 14.6 µM (inactive); in the assay with NCI-H226 it was 3.8 µM (inactive); in the assay on OVCAR-8, 13.4 µM (inactive); with SNB-75, 6.68 µM (inactive); with CAKI-1 it was 14 µM (inactive). Further, the GI50 is 13.3 µM (inactive) in the assay with U-251; 8.22 µM (inactive) with NCI-H460; 16.9 µM (inactive) with SN12C; 5.41 µM (inactive) in the assay with SF-295; 16.9 µM (inactive) with OVCAR-5; 13.3 µM (inactive) with Malme-3M.
In the case of `CC(C)CC(C(N)=O)C(=O)NC(Cc1ccccc1)NC(=O)CNC(=O)C(C)NC(=O)C(N)Cc1ccc(O)cc1` (stereo unspecified), the GI50 in the assay with UO-31, with TK-10, with SF-268, in the assay with HL-60, in the assay on HCC 2998 and in the assay with 786-0 was > 100 µM (inactive) each time. The GI50 in the assay with SW-620, in the assay with SK-MEL-28, in the assay with NCI-H226, with OVCAR-8, with SNB-75 and with CAKI-1 was > 100 µM (inactive) in each case. The GI50 in the assay on U-251, in the assay on NCI-H460, in the assay on SN12C, in the assay with SF-295, with OVCAR-5 and in the assay with Malme-3M was > 100 µM (inactive) each time.
For `OC12c3ccccc3C1CCCCCCCCCC21OCCO1` (stereo unspecified), the GI50 in the assay on UO-31, in the assay with TK-10, in the assay with SF-268, in the assay on HCC 2998, with 786-0 and with SW-620 was > 100 µM (inactive) throughout. For the same molecule, the GI50 in the assay on A498, in the assay on SK-MEL-28, in the assay with NCI-H226, in the assay with OVCAR-8, in the assay with SNB-75 and in the assay on CAKI-1 was > 100 µM (inactive) each time. The GI50 with U-251, with NCI-H460, in the assay on SN12C, with SF-295, in the assay with OVCAR-5 and in the assay with Malme-3M was > 100 µM (inactive) in each case.
Regarding `COc1ccc(-c2oc3cc(OC(C)=O)cc(OC(C)=O)c3c(=O)c2OC)cc1`, the GI50 in the assay with UO-31 was 19.6 µM (inactive); in the assay with TK-10, 21.8 µM (inactive); in the assay with SF-268 it was 15.4 µM (inactive); with HL-60 it was 12.1 µM (inactive); in the assay on HCC 2998, 18.3 µM (inactive); in the assay with SW-620 it was 16.1 µM (inactive). The GI50 in the assay with A498 was 21.7 µM (inactive); with SK-MEL-28 it was 13.7 µM (inactive); in the assay on OVCAR-8, 17 µM (inactive); in the assay on CAKI-1, 4.04 µM (inactive); in the assay on U-251, 14.2 µM (inactive); with NCI-H460, 16.9 µM (inactive). Besides, the results for the GI50 in the assay on SF-295, in the assay on OVCAR-5 and in the assay on Malme-3M were 15.9 µM (inactive), 23.3 µM (inactive) and 26.5 µM (inactive), respectively.
For the molecule `Cc1c2oc3c(C)ccc(C(=O)NC4C(=O)NC(Cc5ccc(O)cc5)C(=O)N5CCCC5C(=O)N(C)CC(=O)N(C)C(C(C)C)C(=O)OC4C)c3nc-2c(C(=O)NC2C(=O)NC(Cc3ccc(O)cc3)C(=O)N3CCCC3C(=O)N(C)CC(=O)N(C)C(C(C)C)C(=O)OC2C)c(N)c1=O` (stereo unspecified) (I: TYP[Sar][NMeV] / II: TYP[Sar][NMeV]; ester I:1-I:C, II:1-II:C; linker I:N-II:N via Actinocin(9to1); configuration not given here), the GI50 is 17.9 µM (inactive) in the assay with UO-31; 13.7 µM (inactive) in the assay on TK-10; 0.16 µM (active) with SF-268; > 40.2 µM (inactive) in the assay with HCC 2998; 0.368 µM (active) in the assay with 786-0; 0.33 µM (active) in the assay on SW-620. The GI50 in the assay on A498 is 16 µM (inactive); in the assay on SK-MEL-28, 0.365 µM (active); with NCI-H226, 0.957 µM (active); in the assay on OVCAR-8, 0.8 µM (active); with SNB-75, 0.139 µM (active); in the assay on CAKI-1, 3.57 µM (inactive). Moreover, the GI50 was 0.374 µM (active) with U-251; 0.215 µM (active) with NCI-H460; 1.48 µM (inactive) with SN12C; 0.42 µM (active) with SF-295; 7.66 µM (inactive) in the assay with OVCAR-5; 0.392 µM (active) in the assay on Malme-3M.

The record behind these values is ChEMBL document CHEMBL1201862, “PubChem BioAssay data set” (2004).
